Measurements as given in patent publication US11986493B2 (University of Pittsburgh—Of the Commonwealth System of …, priority 2013, dated 2024).

What was measured:
[1] = test system: subjects with pulmonary hypertension; test: Oxygen saturation by pulse oximeter and methemoglobin by continuous percutaneous co-oximetry; format: in vivo, human; design: Syst O2sat: unit not given here
Protocol: Oxygen saturation measured by pulse oximeter and methemoglobin levels monitored by continuous percutaneous co-oximetry prior to dose administration and through 4 hours post-dose were monitored closely.

[2] = test system: subjects with pulmonary hypertension; test: Systemic blood pressure (noninvasive) and heart rate monitoring during the study
Protocol: (§1) During the study right heart/pulmonary artery hemodynamics were measured as well as noninvasive systemic blood pressure monitoring and simultaneous RV echocardiography. Subjects were tested for the changes in pulmonary vascular resistance (PVR) measured by right heart catheterization and using thermodilution cardiac output measurement at time zero, at times 15, 30 and 45 minutes after completion of each nebulization dose.
Subjects were monitored closely for changes in blood pressure during the study. […] Subjects were continued to be monitored closely every 10 minutes for 2 hours.

[3] = test system: subjects with pulmonary hypertension (WHO group I PAH, WHO group III PH); test: Right heart catheterization: right heart/pulmonary artery hemodynamics, thermodilution cardiac output, PVR and SVR after inhaled NO and nebulized nitrite; format: in vivo, human
Protocol: A total of 6 subjects with a confirmed diagnosis of pulmonary hypertension and meeting all inclusion/exclusion criteria were enrolled in the study which entailed a single right heart catheterization. The study population consisted of subjects with WHO group I PAH (n=3) and subjects with WHO group III PH (n=3) which received the dose escalation paradigm:
as §1
Following right heart catheterization, the patient was stabilized for 20 minutes. Baseline blood collections and hemodynamic measurements were performed, followed by treatment with 40 ppm inhaled NO gas for […] with repeat hemodynamic measurements performed.
After stopping inhaled NO gas, a single dose of sildenafil was given if patients were on background sildenafil therapy at previously prescribed doses. 45-minutes after sildenafil dose baseline hemodynamics were performed.
Subjects were monitored carefully during and after the study treatment.
The study was conducted at the 3rd FL Catheterization Laboratory at Presbyterian Hospital of the University of Pittsburgh Medical Center (UPMC). Baseline vasoreactivity was recorded after Inhaled NO at 40 ppm for […]. […] Subjects were instructed to breathe as calmly, and deeply as possible until no more mist was formed in the nebulizer chamber. Subjects were also instructed to hold their breath for approximately 10 seconds after inhalation to allow the study drug to reach deep into the lungs.

[4] = 40 ppm inhaled NO, some patients (non-responsive to inhaled NO)

Substance: nitric oxide [iNO, reference compound]
- Syst O2sat ([1]; Patient 1, 40 ppm inhaled NO): 100
- Syst O2sat ([1]; Patient 2, 40 ppm inhaled NO): 100
- Syst O2sat ([1]; Patient 3, 40 ppm inhaled NO): 99
- Syst O2sat ([1]; Patient 4, 40 ppm inhaled NO): 100
- Syst O2sat ([1]; Patient 5, 40 ppm inhaled NO): 100
- Syst O2sat ([1]; Patient 6, iNO): 100
- HR ([2]; Patient 1, 40 ppm inhaled NO): 84
- Systemic DBP ([2]; Patient 1, 40 ppm inhaled NO): 66
- Systemic SBP ([2]; Patient 1, 40 ppm inhaled NO): 107
- Systemic mBP ([2]; Patient 1, 40 ppm inhaled NO): 79.68
- HR ([2]; Patient 2, 40 ppm inhaled NO): 71
- Systemic DBP ([2]; Patient 2, 40 ppm inhaled NO): 69
- Systemic SBP ([2]; Patient 2, 40 ppm inhaled NO): 124
- Systemic mBP ([2]; Patient 2, 40 ppm inhaled NO): 87.34
- HR ([2]; Patient 3, 40 ppm inhaled NO): 75
- Systemic DBP ([2]; Patient 3, 40 ppm inhaled NO): 57
- Systemic SBP ([2]; Patient 3, 40 ppm inhaled NO): 108
- Systemic mBP ([2]; Patient 3, 40 ppm inhaled NO): 74.01
- HR ([2]; Patient 4, 40 ppm inhaled NO): 66
- Systemic DBP ([2]; Patient 4, 40 ppm inhaled NO): 76
- Systemic SBP ([2]; Patient 4, 40 ppm inhaled NO): 143
- Systemic mBP ([2]; Patient 4, 40 ppm inhaled NO): 98.35
- HR ([2]; Patient 5, 40 ppm inhaled NO): 56
- Systemic DBP ([2]; Patient 5, 40 ppm inhaled NO): 51
- Systemic SBP ([2]; Patient 5, 40 ppm inhaled NO): 97
- Systemic mBP ([2]; Patient 5, 40 ppm inhaled NO): 65.34
- HR ([2]; Patient 6, iNO): 100
- Systemic DBP ([2]; Patient 6, iNO): 77
- Systemic SBP ([2]; Patient 6, iNO): 147
- Systemic mBP ([2]; Patient 6, iNO): 100.346
- reduction in PCWP from baseline [3, 4]: did not show a meaningful reduction
- reduction in RA from baseline [3, 4]: did not show a meaningful reduction
- CI ([3]; Patient 1, 40 ppm inhaled NO): 2.54
- CO ([3]; Patient 1, 40 ppm inhaled NO): 4.91
- PA sat ([3]; Patient 1, 40 ppm inhaled NO): 68
- PAD ([3]; Patient 1, 40 ppm inhaled NO): 25
- PAS ([3]; Patient 1, 40 ppm inhaled NO): 73
- PCWP ([3]; Patient 1, 40 ppm inhaled NO): 14
- PVR ([3]; Patient 1, 40 ppm inhaled NO): 5.50
- PVR/SVR ([3]; Patient 1, 40 ppm inhaled NO): 0.40
- RA ([3]; Patient 1, 40 ppm inhaled NO): 12
- SVR ([3]; Patient 1, 40 ppm inhaled NO): 13.78
- TPR ([3]; Patient 1, 40 ppm inhaled NO): 8.35
- mPAP ([3]; Patient 1, 40 ppm inhaled NO): 41.01
- CI ([3]; Patient 2, 40 ppm inhaled NO): 3.47
- CO ([3]; Patient 2, 40 ppm inhaled NO): 6.7
- PA sat ([3]; Patient 2, 40 ppm inhaled NO): 68
- PAD ([3]; Patient 2, 40 ppm inhaled NO): 13
- PAS ([3]; Patient 2, 40 ppm inhaled NO): 45
- PCWP ([3]; Patient 2, 40 ppm inhaled NO): 10
- PVR ([3]; Patient 2, 40 ppm inhaled NO): 2.04
- PVR/SVR ([3]; Patient 2, 40 ppm inhaled NO): 0.17
- RA ([3]; Patient 2, 40 ppm inhaled NO): 7
- SVR ([3]; Patient 2, 40 ppm inhaled NO): 11.99
- TPR ([3]; Patient 2, 40 ppm inhaled NO): 3.53
- mPAP ([3]; Patient 2, 40 ppm inhaled NO): 23.67
- CI ([3]; Patient 3, 40 ppm inhaled NO): 3.14
- CO ([3]; Patient 3, 40 ppm inhaled NO): 6.53
- PAD ([3]; Patient 3, 40 ppm inhaled NO): 20
- PAS ([3]; Patient 3, 40 ppm inhaled NO): 69
- PCWP ([3]; Patient 3, 40 ppm inhaled NO): 14
- PVR ([3]; Patient 3, 40 ppm inhaled NO): 3.42
- PVR/SVR ([3]; Patient 3, 40 ppm inhaled NO): 0.35
- RA ([3]; Patient 3, 40 ppm inhaled NO): 11
- SVR ([3]; Patient 3, 40 ppm inhaled NO): 9.65
- TPR ([3]; Patient 3, 40 ppm inhaled NO): 5.56
- mPAP ([3]; Patient 3, 40 ppm inhaled NO): 36.34
- CI ([3]; Patient 4, 40 ppm inhaled NO): 2.98
- CO ([3]; Patient 4, 40 ppm inhaled NO): 5.21
- PAD ([3]; Patient 4, 40 ppm inhaled NO): 21
- PAS ([3]; Patient 4, 40 ppm inhaled NO): 63
- PCWP ([3]; Patient 4, 40 ppm inhaled NO): 7
- PVR ([3]; Patient 4, 40 ppm inhaled NO): 5.38
- PVR/SVR ([3]; Patient 4, 40 ppm inhaled NO): 0.29
- RA ([3]; Patient 4, 40 ppm inhaled NO): 3
- SVR ([3]; Patient 4, 40 ppm inhaled NO): 18.30
- TPR ([3]; Patient 4, 40 ppm inhaled NO): 6.72
- mPAP ([3]; Patient 4, 40 ppm inhaled NO): 35.00
- CI ([3]; Patient 5, 40 ppm inhaled NO): 2.85
- CO ([3]; Patient 5, 40 ppm inhaled NO): 5.05
- PAD ([3]; Patient 5, 40 ppm inhaled NO): 17
- PAS ([3]; Patient 5, 40 ppm inhaled NO): 64
- PCWP ([3]; Patient 5, 40 ppm inhaled NO): 14
- PVR ([3]; Patient 5, 40 ppm inhaled NO): 3.70
- PVR/SVR ([3]; Patient 5, 40 ppm inhaled NO): 0.30
- RA ([3]; Patient 5, 40 ppm inhaled NO): 5
- RVD ([3]; Patient 5, 40 ppm inhaled NO): 5
- RVS ([3]; Patient 5, 40 ppm inhaled NO): 66
- SVR ([3]; Patient 5, 40 ppm inhaled NO): 12.15
- TPR ([3]; Patient 5, 40 ppm inhaled NO): 6.47
- mPAP ([3]; Patient 5, 40 ppm inhaled NO): 32.67
- CI ([3]; Patient 6, iNO): 3.1658
- CO ([3]; Patient 6, iNO): 6.3
- PAD ([3]; Patient 6, iNO): 27
- PAS ([3]; Patient 6, iNO): 58
- PCWP ([3]; Patient 6, iNO): 13
- PVR ([3]; Patient 6, iNO): 4.3924
- PVR/SVR ([3]; Patient 6, iNO): 0.3132
- RA ([3]; Patient 6, iNO): 12
- RVD ([3]; Patient 6, iNO): 12
- RVS ([3]; Patient 6, iNO): 58
- SVR ([3]; Patient 6, iNO): 14.023
- TPR ([3]; Patient 6, iNO): 6.4559
- mPAP ([3]; Patient 6, iNO): 40.672
- PCWP compared to baseline ([3]; after inhalation of NO, in some instances): increased
